Four compounds from ChEMBL document CHEMBL1149724, “Nakahalene and Cytotoxic principles of Formosan Rhamnus Species” (1992) can be followed below.

Assay [1] in a line: Cytotoxicity against human PLC/PRF/5 cells. In kind it is functional. The settings on record: read-out: ED50 (the source's name).
The test system of another assay is KB. Put plainly: Cytotoxicity against human KB cells. In kind it is functional. To be noted: read-out: ED50 (the source's name).

The structures appear in SMILES notation. Values after ≈ are worked out from the molar mass of the structure shown.

For the compound `Cc1cc(O)c2c(c1)C(=O)c1cccc(O)c1C2=O` [CHRYSOPHANOL], the EC50 in assay [1] turned out to be 3.23 µg/mL (≈ 12.7 µM); with KB it was 5.68 µg/mL (≈ 22.3 µM).
With `Cc1cc(O)c2c(c1)C(=O)c1cc(O)cc(O)c1C2=O` [EMODIN], the values for the EC50 (in assay [1]; in the assay with KB) were 5.91 µg/mL (≈ 21.9 µM) and 3.46 µg/mL (≈ 12.8 µM), respectively.
As for `COc1cc(O)c2c(c1)C(=O)c1cc(C)cc(O)c1C2=O` [PHYSCION], the EC50 was 1.44 µg/mL (≈ 5.07 µM) in assay [1] and 1.55 µg/mL (≈ 5.45 µM) in the assay with KB.
For `Cc1cc(O)c2c(c1)C(=O)c1cc(O[C@@H]3OC[C@](O)(CO)[C@H]3O)cc(O)c1C2=O` [FRANGULIN B], in that order: 0.8 µg/mL (≈ 1.99 µM) and 2.49 µg/mL (≈ 6.19 µM).
